Where two headings read alike, the source gives them in different places.
Columns and labels:
[1] = Metabolic stability assay (substrate depletion) in mouse liver cytosol fractions; conditions: for half-life at 1 μM: male, CD-1, mouse; for t1/2 [min] (Left): left compound
Description: (§1) Our assay (384-well format) consisted of two parts; a robotic system for incubation and sample clean up and an integrated LC/MS method to calculate the percent remaining of parent compound. Briefly, each reaction mixture (110 μL) consisted of a test compound (1 μM) and either human or mouse cytosol fractions (2 mg/mL) in phosphate buffer (100 mM) at pH 7.4. Samples were incubated in 384-well plates at 37 °C for 0, 5, 10, 15, 30 and 60 min. Sample analysis and t1/2 calculations were performed using a previously described method [15]. […] A set of control compounds for low and high cytosolic stability were routinely run in each plate.

[2] = human, cytosol
Description: as §1

[3] = set-up: method as in PMID 20421447; conditions: development discontinued in 2008; cited from earlier work
[4] = Metabolic stability assay (substrate depletion) in human liver cytosol fractions; conditions: for half-life at 1 μM: both, human
Description: as §1

[5] = set-up: method as in PMID 21385103; conditions: clinical trials terminated; cited from earlier work
[6] = liver cytosol fractions, pH 7.4, t1/2 [min] (Right), external validation, sheet Mouse, right compound
[7] = external validation, sheet Mouse
[8] = external validation, sheet Human, left compound
[9] = liver cytosol fractions, pH 7.4, t1/2 [min] (Right), external validation, sheet Human, right compound

COc1cc(=O)n2c(c1C(=O)Nc1ccc(Cl)c(F)c1)CCCC2
half-life at 1 μM [1, 6]: 1.47 h

CN1c2cc(C(=O)Nc3ccc(Cl)cc3)ccc2C(=O)N2CCCCCC21 (stereo not drawn)
t1/2 [min] (Left) [1, 7]: 63.37 min

COCC1CN(Cc2ccc(Cl)c(F)c2)CC12CCNCC2 (stereo not drawn) [COCC1CN(Cc2ccc(Cl)c(F)c2)CC12CCNCC2]
half-life at 1 μM [1, 6]: > 2 h

O=C(c1ccc(-c2ncc3cnc(-c4cccc(F)c4)cn23)cc1)N1CCc2cccnc21
t1/2 [min] (Left) [2]: 17.3 min

COc1cccc(C(=O)NCC2CCCN(Cc3cc[nH]n3)C2)c1OC (stereo not drawn)
half-life at 1 μM [1, 6]: > 2 h

Cc1noc(-c2nc(-c3ccc(Cl)cc3)no2)n1 [Cc1noc(-c2nc(-c3ccc(Cl)cc3)no2)n1]
t1/2 [min] (Left) [1, 7]: 15.6 min

O=C1NC2(CCN(C(=O)c3ccc(Cl)c(F)c3)CC2)CC1c1ccccc1 (stereo not drawn)
half-life at 1 μM [1, 6]: 1.43 h

COc1ccc(CN2C[C@H]3CN(Cc4ccc(Cl)cc4)CCN3C2=O)cc1
t1/2 [min] (Left) [1, 7]: 82.24 min

O=c1cc(N2CCOCC2)oc2c(-c3cccc(F)c3)nccc12 [O=c1cc(N2CCOCC2)oc2c(-c3cccc(F)c3)nccc12]
t1/2 [min] (Left) [2]: > 120 min

OCC1(CN2CCCC2)CCN(Cc2ccc(Cl)cc2)CC1 [OCC1(CN2CCCC2)CCN(Cc2ccc(Cl)cc2)CC1]
t1/2 [min] (Left) [1, 7]: 54.48 min

CN(C1CCOCC1)C1CCN(C(=O)c2cc[nH]n2)CC1 [CN(C1CCOCC1)C1CCN(C(=O)c2cc[nH]n2)CC1]
half-life at 1 μM [1, 6]: > 2 h

Cn1cc(-c2ccc3nnc(Sc4ccc5ncccc5c4)n3n2)cn1 [SGX523]
toxicity reported in development [3]: dose-limiting renal toxicity

CCN1c2cc(C(=O)Nc3ccc(Cl)cc3)ccc2C(=O)N2CCCCC21 (stereo not drawn)
t1/2 [min] (Left) [1, 7]: 25.75 min

CCN1c2cc(C(=O)Nc3ccc(Cl)c(F)c3)ccc2C(=O)N2CCCCC21 (stereo not drawn)
half-life at 1 μM [1, 6]: 0.412 h

CN1C(=O)CO[C@H]2CN(Cc3ccc(Cl)cc3)C[C@H]21
t1/2 [min] (Left) [1, 7]: 116.11 min

O=C1[C@H]2CN(Cc3ccc(Cl)cc3)C[C@H]2C(=O)N1CCc1ccccc1
t1/2 [min] (Left) [1, 7]: 47.51 min

CCN1c2cc(C(=O)Nc3ccc(Cl)c(F)c3)ccc2C(=O)N2CCCCCC21 (stereo not drawn)
half-life at 1 μM [1, 6]: 0.904 h

CCOc1cc(=O)n2c(c1C(=O)Nc1ccc(Cl)c(F)c1)CCCC2
half-life at 1 μM [1, 6]: 1.34 h

CN(Cc1cccnc1)c1nc2c(c(=O)[nH]1)CCN(Cc1ccc(Cl)cc1)CC2
t1/2 [min] (Left) [1, 7]: 74.11 min

O=C(Nc1cccc(-c2nnc3n2CCCC3)c1)c1ccc(Cl)cc1
t1/2 [min] (Left) [1, 7]: 56.47 min

CCOc1cc(=O)n2c(c1C(=O)Nc1ccc(Cl)cc1)CCCC2
t1/2 [min] (Left) [1, 7]: 94.08 min

CN1c2cc(C(=O)Nc3ccc(Cl)c(F)c3)ccc2C(=O)N2CCCCC21 (stereo not drawn)
half-life at 1 μM [1, 6]: 0.524 h

COCC1CN(C(C)=O)CC12CCN(Cc1ccc(Cl)c(F)c1)CC2 (stereo not drawn)
half-life at 1 μM [1, 6]: 1.36 h

O=C1[C@H]2CN(Cc3ccc(Cl)c(F)c3)C[C@H]2C(=O)N1CCc1ccccc1
half-life at 1 μM [1, 6]: 0.621 h

CN1c2cc(C(=O)Nc3ccc(Cl)cc3)ccc2C(=O)N2CCCCC21 (stereo not drawn)
t1/2 [min] (Left) [1, 7]: 83.39 min

CCN1c2cc(C(=O)Nc3ccc(Cl)cc3)ccc2C(=O)N2CCCCCC21 (stereo not drawn)
t1/2 [min] (Left) [1, 7]: 56.1 min

FC(F)(F)c1ccc2nc([C@H]3CCN(Cc4ccc(Cl)cc4)C3)[nH]c2c1
t1/2 [min] (Left) [1, 7]: 56.67 min

Cc1cccc(-c2noc([C@@H]3C[C@@H](O)CN3Cc3ccc(Cl)cc3)n2)c1
t1/2 [min] (Left) [1, 7]: 23.64 min

O=C1[C@H]2CN(Cc3ccc(Cl)c(F)c3)C[C@H]2C(=O)N1Cc1ccc2c(c1)OCO2
half-life at 1 μM [1, 6]: 0.921 h

O=C(Nc1ccc(-c2nnc3n2CCCC3)cc1)c1ccc(Cl)cc1
t1/2 [min] (Left) [1, 7]: 117.12 min

Cc1cc(=O)n(-c2ccccc2)n1C [Antipyrine, reference compound]
half-life at 1 μM ([4]; cytosol, pH 7.4, t1/2 (mean ± SD) (Human cytosol), control compounds, 17 plates, 1 μM, 2 mg/mL cytosol, pH 7.4, 37 °C): > 2 h | half-life at 1 μM ([4]; cytosol, pH 7.4, t1/2 category (Human cytosol), control compounds, 17 plates): > 0.5 h | half-life at 1 μM ([1]; cytosol, pH 7.4, t1/2 (mean ± SD) (Mouse cytosol), control compounds, 17 plates, 1 μM, 2 mg/mL cytosol, pH 7.4, 37 °C): > 2 h | half-life at 1 μM ([1]; cytosol, pH 7.4, t1/2 category (Mouse cytosol), control compounds, 17 plates): > 0.5 h

O=C(Nc1ccc(-c2nnc3n2CCCC3)cc1)c1cc[nH]n1 [O=C(Nc1ccc(-c2nnc3n2CCCC3)cc1)c1cc[nH]n1]
half-life at 1 μM [1, 6]: > 2 h

CC(C)n1nc(-c2cnc(N)nc2-c2ccccc2)ccc1=O [FK3453]
levels of parent compound in human plasma [5]: abnormally low levels

OCC1(CN2CCCC2)CCN(Cc2ccc(Cl)c(F)c2)CC1 [OCC1(CN2CCCC2)CCN(Cc2ccc(Cl)c(F)c2)CC1]
half-life at 1 μM [1, 6]: 1.21 h

COc1ccc(-c2n[nH]c3ncc(-c4cccc(F)c4)nc23)c(C)c1
t1/2 [min] (Left) [4, 8]: 75.8 min

N#Cc1cccc(-c2c(C(=O)N3CCCCC3)nc3sccn23)c1
t1/2 [min] (Left) [4, 8]: 103.4 min

O=C(Nc1cccc(-c2nnc3n2CCCC3)c1)c1cc[nH]n1 [O=C(Nc1cccc(-c2nnc3n2CCCC3)c1)c1cc[nH]n1]
half-life at 1 μM [1, 6]: > 2 h

N#Cc1ccc(CN2CC(Oc3ccc(F)c(F)c3)C2)cc1 [N#Cc1ccc(CN2CC(Oc3ccc(F)c(F)c3)C2)cc1]
t1/2 [min] (Left) [4, 8]: 71.4 min

CNC(=O)[C@@H]1CN(C(=O)c2cccc(C#N)c2)C[C@H]1COC
t1/2 [min] (Left) [4, 8]: 86.6 min

O=C1OCC2(CCN(Cc3cc[nH]n3)C2)N1CCN1CCOCC1 (stereo not drawn) [O=C1OCC2(CCN(Cc3cc[nH]n3)C2)N1CCN1CCOCC1]
half-life at 1 μM [1, 6]: > 2 h

Cc1ccc(NC(=O)c2nc3sccn3c2-c2cccc(C#N)c2)cc1
t1/2 [min] (Left) [4, 8]: 17.4 min

N#Cc1ccc(CN2CCC(N3CCNC3=O)CC2)cc1 [N#Cc1ccc(CN2CCC(N3CCNC3=O)CC2)cc1]
t1/2 [min] (Left) [4, 8]: 93.2 min

O=C(NCCc1c[nH]cn1)c1ccc(-c2ncc3cnc(-c4cccc(F)c4)cn23)cc1
t1/2 [min] (Left) [4, 8]: 14.9 min

N#Cc1cccc(-c2cn3c(n2)N(C(=O)c2ccco2)CCC3)c1
t1/2 [min] (Left) [4, 8]: 36.7 min

O=c1[nH]c(N2CCOCC2)nc2c1CCN(Cc1ccc(Cl)c(F)c1)CC2
half-life at 1 μM [1, 6]: 1.54 h

COc1ccc(CN2CC[C@H](c3nnc(C)o3)C2)cc1 [COc1ccc(CN2CC[C@H](c3nnc(C)o3)C2)cc1]
half-life at 1 μM [4, 9]: > 2 h

Cn1ccc(NC(=O)c2ccc(-c3ncc4cnc(-c5cccc(F)c5)cn34)cc2)n1
t1/2 [min] (Left) [4, 8]: 33.2 min

CN1CCN(c2nc3c(c(=O)[nH]2)CCN(Cc2ccc(Cl)c(F)c2)CC3)CC1
half-life at 1 μM [1, 6]: > 2 h

COc1cccc(CN2CCC3(CC2)OCCN(C)C3=O)c1 [COc1cccc(CN2CCC3(CC2)OCCN(C)C3=O)c1]
half-life at 1 μM [4, 9]: > 2 h

COc1cccc(CN2CCOC[C@H](O)C2)c1 [COc1cccc(CN2CCOC[C@H](O)C2)c1]
half-life at 1 μM [4, 9]: 0.47 h

N#Cc1ccc(CN2CC(Oc3ccc(F)cc3F)C2)cc1 [N#Cc1ccc(CN2CC(Oc3ccc(F)cc3F)C2)cc1]
half-life at 1 μM ([4]; liver cytosol fractions, pH 7.4, t1/2 [min] (Left), external validation, sheet Human, left compound): 1.05 h | half-life at 1 μM ([4]; liver cytosol fractions, pH 7.4, t1/2 [min] (left), in-house library pair, human transforms, left compound): 1.05 h

CN1CCN(C(=O)Cc2cccn2-c2ccc(F)cc2)CC1 [CN1CCN(C(=O)Cc2cccn2-c2ccc(F)cc2)CC1]
half-life at 1 μM ([4]; cytosol, pH 7.4, t1/2 [min] (Right), external validation, sheet Human, right compound): > 2 h

CN(C)c1nc2c(c(=O)[nH]1)CCN(Cc1ccc(Cl)cc1)CC2
t1/2 [min] (Left) [1, 7]: 114.48 min

CN1c2cc(C(=O)Nc3ccc(Cl)c(F)c3)ccc2C(=O)N2CCCCCC21 (stereo not drawn)
half-life at 1 μM [1, 6]: 0.383 h

O=C1[C@H]2CN(Cc3ccc(Cl)cc3)C[C@H]2C(=O)N1Cc1ccc2c(c1)OCO2
t1/2 [min] (Left) [1, 7]: 66.66 min

COc1cccc(-c2cn3c(n2)N(C(=O)c2ccco2)CCC3)c1
half-life at 1 μM [4, 9]: 0.993 h

COc1ccc(CN2CCC3(C2)NC(=O)c2ccccc2O3)cc1 (stereo not drawn) [COc1ccc(CN2CCC3(C2)NC(=O)c2ccccc2O3)cc1]
half-life at 1 μM [4, 9]: > 2 h

COc1cccc(-c2c(C(=O)N3CCOCC3)nc3sccn23)c1 [COc1cccc(-c2c(C(=O)N3CCOCC3)nc3sccn23)c1]
half-life at 1 μM [4, 9]: > 2 h

O=C(c1ccoc1)N1CCC(Oc2ccccc2)C1 (stereo not drawn) [O=C(c1ccoc1)N1CCC(Oc2ccccc2)C1]
half-life at 1 μM [4, 9]: > 2 h

CN(Cc1cccc(F)c1)C1CCOc2ccccc21 (stereo not drawn) [CN(Cc1cccc(F)c1)C1CCOc2ccccc21]
t1/2 [min] (Left) [4, 8]: 8.6 min

CN(C)c1nc2c(c(=O)[nH]1)CCN(Cc1ccc(Cl)c(F)c1)CC2
half-life at 1 μM [1, 6]: > 2 h

COc1ccc(C(=O)N2C[C@@H](CO)[C@H](N(C)C)C2)cc1
half-life at 1 μM [4, 9]: > 2 h

From publication PMC7140498, “Predicting liver cytosol stability of small molecules” (Journal of Cheminformatics, 2020)
